Assay results from paper PMC9699072 (Molecules, 2022).
“And” between values parts separate entries of the source, which are not always exact repeats. Identical values can stand only once.

Experiments:
Format in all cases: biochemical
[1] = ABTS radical cation scavenging (decolorization) assay; conditions: mean ± SEM, n = 3; for ABTS TEAC (Trolox equivalent antioxidant capacity): 1 h incubation, relative to Trolox; for IC50: 1 h, read-out: ABTS IC50 (compound concentration required for 50% reduction of the ABTS radical-cation) (converted)
Method: The ABTS assay is based on the direct quenching of the ABTS cation radical (ABTS^•+) by antioxidants. The assay is carried out by spectrophotometric determination of a decrease in absorbance of a stable dark green ABTS^•+ solution after its interaction with an antioxidant compound [56]. The measurements were performed as previously described in detail. The results are expressed as TEAC values (Trolox equivalent antioxidant capacity) and IC50 values (compound concentration required for 50% reduction of the ABTS radical).
Radical scavenging activity of the compounds was assessed using the ABTS radical cation (ABTS^•+) decolorization assay with some modifications. ABTS (2,2′-azinobis-(3-ethylbenzothiazoline-6-sulfonic acid)) was purchased from Tokyo Chemical Industry Co., Ltd. (Tokyo, Japan), and potassium persulfate (dipotassium peroxodisulfate), Trolox (6-hydroxy-2,5,7,8-tetramethylchroman-2-carboxylic acid), and HPLC-grade ethanol and DMSO were obtained from Sigma-Aldrich (Saint Louis, MO, USA). Aqueous solutions were prepared using deionized water. All test compounds were dissolved in DMSO.
The solution of cation radical ABTS^•+ was produced by incubation of an aqueous solution of 7 mM ABTS and 2.45 mM potassium persulfate solution in equal quantities for 12–16 h at room temperature in the dark. Radical scavenging capacity of the compounds was analyzed by mixing 10 μL of compound with 240 μL of ABTS^•+ working solution in ethanol (100 μM final concentration). Data were given for 1 h of incubation of compounds with ABTS^•+. The reduction in absorbance was measured spectrophotometrically at 734 nm using an xMark microplate UV/VIS microplate spectrophotometer (Bio-Rad, Hercules, CA, USA).
Ethanol blanks were run in each assay. Values were obtained from three replicates of each sample and three independent experiments.
Standard antioxidant Trolox was used as a reference compound. Antioxidant capacity as Trolox equivalent (TEAC) values was determined as the ratio between the slopes obtained from the linear correlation of the ABTS radical absorbance with the concentrations of tested compounds and Trolox. Quercetin was used as a positive control. For the test compounds that reduced ABTS^•+ absorbance by more than 60% at 100 µM, we also determined the IC50 values (the compound concentration required for a 50% reduction of the ABTS radical). The compounds were tested in the concentration range of 0.5–400 µM.

[2] = FRAP (ferric reducing antioxidant power) assay; conditions: mean ± SEM, n = 3; 1 h, 37 °C, pH 3.6
Method: The FRAP (ferric reducing antioxidant power) assay measures the ability of antioxidants to reduce the ferric 2,4,6-tripyridyl-s-triazine complex [Fe(TPTZ)2]^3+ to the intensely blue ferrous complex [Fe(TPTZ)2]^2+ in an acidic medium. The measurements were performed as previously described in detail. The results are expressed as TE (Trolox equivalents).
The FRAP (ferric reducing antioxidant power) assay measures the ability of antioxidants to reduce the ferric 2,4,6-tripyridyl-s-triazine complex [Fe (TPTZ)2]^3+ to the intensely blue ferrous complex [Fe (TPTZ)2]^2+ (λ = 593 nm) in acidic medium. 2,4,6-Tris(pyridin-2-yl)-1,3,5-triazine (TPTZ), FeCl3·6H2O, Trolox, quercetin and DMSO were obtained from Sigma-Aldrich Chemical Co. (St. Louis, MO, USA). The FRAP reagent contained 2.5 mL of 10 mM TPTZ solution in 40 mM HCl, 2.5 mL of 20 mM FeCl3·6H2O water solution, and 25 mL of 0.3 M acetate buffer (pH 3.6). Aliquots of 10 µL of the test compound solution in DMSO (0.5 mM) were mixed with 240 µL of FRAP reagent, and the absorbance of the mixture was measured spectrophotometrically (FLUOStar OPTIMA microplate spectrophotometer (BMG Labtech, Ortenberg, Germany)) at 600 nm after 1 h incubation at 37 °C against a blank. Trolox was used as a reference compound. Quercetin was used as a positive control. A calibration curve with linear formula y = 0.03x (R^2 = 0.998, p < 0.0001) was prepared for Trolox solutions in DMSO at a range of 2.5–100 µM, and the results are expressed as Trolox equivalents (TE), the values calculated as the ratio of the concentrations of Trolox and the test compound, resulting in the same effect.

[3] = molecular target: T1, human erythrocyte AChE (Homo sapiens, UniProt P22303); test: Inhibition of AChE (Ellman's colorimetric assay); conditions: read-out: AChE % inhibition at 20 μM
T1 construct: Human erythrocyte acetylcholinesterase (AChE, EC 3.1.1.7); purchased Sigma-Aldrich (Saint Louis, MO, USA); host or cells: human erythrocytes
T1 sequence (P22303 32-617 isoform P22303-2 limits assumed): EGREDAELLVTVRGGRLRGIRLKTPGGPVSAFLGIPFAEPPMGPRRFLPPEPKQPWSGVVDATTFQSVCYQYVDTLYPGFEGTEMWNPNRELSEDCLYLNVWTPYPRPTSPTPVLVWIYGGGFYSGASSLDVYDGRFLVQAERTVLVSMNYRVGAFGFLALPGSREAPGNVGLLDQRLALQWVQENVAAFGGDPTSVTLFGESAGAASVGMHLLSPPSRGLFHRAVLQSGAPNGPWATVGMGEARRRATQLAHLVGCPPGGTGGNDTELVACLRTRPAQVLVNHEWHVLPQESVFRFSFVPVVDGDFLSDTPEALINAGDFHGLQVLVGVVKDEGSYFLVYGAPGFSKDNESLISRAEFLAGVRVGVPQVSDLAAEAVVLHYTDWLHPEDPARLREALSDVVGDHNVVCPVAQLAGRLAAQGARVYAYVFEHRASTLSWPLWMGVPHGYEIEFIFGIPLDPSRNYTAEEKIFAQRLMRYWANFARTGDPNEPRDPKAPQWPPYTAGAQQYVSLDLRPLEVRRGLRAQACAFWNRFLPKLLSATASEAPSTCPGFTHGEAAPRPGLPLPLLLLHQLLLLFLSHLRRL
Excerpt: (§1) Given the available literature data on the ability of pyrazole derivatives to inhibit acetylcholinesterase (AChE) and human carboxylesterase-1 (CES), we performed an investigation of the esterase profile for new compounds 1a–j and 4a–j, including an evaluation of their inhibitory effect on the standard enzymes set: human erythrocyte AChE, equine serum butyrylcholinesterase (BChE), and porcine liver CES (Table 2). The applicability of this set of enzymes was shown by us earlier.
(§2) Human erythrocyte acetylcholinesterase (AChE, EC 3.1.1.7), equine serum butyrylcholinesterase (BChE, EC 3.1.1.8), porcine liver carboxylesterase (CES, EC 3.1.1.1), acetylthiocholine iodide (ATCh), butyrylthiocholine iodide (BTCh), 4-nitrophenol acetate (4-NPA), and 5,5′-dithio-bis-(2-nitrobenzoic acid) (DTNB) were purchased from Sigma-Aldrich (Saint Louis, MO, USA).
(§3) All the kinetic experiments were performed under standard conditions, according to the protocol of IPAC RAS for a reversible inhibitors study.
(§4) Ellman’s colorimetric assay was used to measure AChE and BChE activity in 0.1 M K/Na phosphate buffer at pH 7.5, 25 °C [86]. Final concentrations of reactants were 0.33 mM DTNB, 0.02 unit/mL of AChE or BChE, and 1 mM of substrate (ATCh or BTCh, respectively). Reagent blanks consisted of reaction mixtures without enzyme to assess non-enzymatic hydrolysis of substrates. Porcine liver CES activity was assessed colorimetrically in 0.1 M K/Na phosphate buffer with pH 8.0 at 25 °C, by measuring the absorbance of 4-nitrophenol at 405 nm. Final enzyme and substrate (4-NPA) concentrations were 0.02 unit/mL and 1 mM, respectively. Reagent blanks included all constituents except enzyme.
(§5) Test compounds were dissolved in DMSO. Reaction mixtures contained a final DMSO concentration of 2% (v/v). Enzyme inhibition was first assessed at a single concentration of 20 µM for each compound after a 10 min incubation at 25 °C in three separate experiments. Compounds inhibiting the enzyme by more than 30% were then selected for determination of the IC50 (inhibitor concentration resulting in 50% inhibition of control enzyme activity). […] Substrate was then added, and residual enzyme activity relative to an inhibitor-free control was measured using a FLUOStar Optima microplate reader (LabTech, Ortenberg, Germany).

[4] = molecular target: T2, equine serum butyrylcholinesterase (BChE) (Equus caballus, UniProt P81908); test: Inhibition of BChE (Ellman's colorimetric assay); conditions: ± SEM, n = 3, 10 min incubation 25 °C
T2 construct: equine serum butyrylcholinesterase (BChE, EC 3.1.1.8); purchased Sigma-Aldrich (Saint Louis, MO, USA); host or cells: equine serum
T2 sequence (P81908 whole entry): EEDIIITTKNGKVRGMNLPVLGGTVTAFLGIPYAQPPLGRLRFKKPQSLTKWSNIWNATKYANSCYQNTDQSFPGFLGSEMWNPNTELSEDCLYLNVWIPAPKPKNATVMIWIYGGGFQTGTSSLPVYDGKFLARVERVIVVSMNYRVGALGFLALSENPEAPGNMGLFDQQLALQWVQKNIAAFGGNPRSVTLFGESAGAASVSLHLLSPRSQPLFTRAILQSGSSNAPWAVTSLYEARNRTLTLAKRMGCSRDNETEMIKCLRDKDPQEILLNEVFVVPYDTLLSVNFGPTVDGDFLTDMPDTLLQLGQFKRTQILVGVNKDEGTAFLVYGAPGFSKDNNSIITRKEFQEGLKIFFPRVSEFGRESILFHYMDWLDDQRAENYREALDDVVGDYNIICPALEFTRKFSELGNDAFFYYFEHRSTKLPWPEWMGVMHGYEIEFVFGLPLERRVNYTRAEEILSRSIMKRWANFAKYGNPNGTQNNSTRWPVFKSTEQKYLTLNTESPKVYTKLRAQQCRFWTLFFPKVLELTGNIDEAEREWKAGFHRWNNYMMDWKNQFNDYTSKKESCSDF
Excerpt: as §1, §2, §3, §4, §5

[5] = tested on: porcine liver CES; test: Inhibition of CES (4-nitrophenol acetate hydrolysis); conditions: 20 μM, ± SEM, n = 3, 10 min incubation 25 °C
Excerpt: as §1, §2, §3, §4, §5

[6] = ORAC-FL (oxygen radical absorbance capacity) assay; conditions: mean ± SEM, n = 3; 2 h; 10 μM compound and Trolox
Excerpt: In the oxygen radical absorbance capacity (ORAC-FL) assay, 2,2′-azobis-(2-methylpropionamidine) dihydrochloride (AAPH) is used as a free peroxyl radical generator, and fluorescein (FL) is used as a fluorescent probe. The method is based on measuring the decrease in the intensity of fluorescence with time, which characterizes the degree of decay of the fluorescent probe under the influence of peroxyl radicals. In the presence of antioxidants, the degree of decay of the fluorescent probe decreases and, accordingly, the fluorescence intensity increases. The results are expressed as TE (Trolox equivalents).
The ORAC assay utilizes a biologically relevant radical source, 2,2′-azobis(2-amidinopropane) dihydrochloride (AAPH)-derived peroxyl radicals. Thus, it is a more physiologically relevant assay than ABTS and FRAP.
The oxygen radical absorbance capacity (ORAC) was determined by the ability of compounds to protect fluorescein (FL) from peroxyl radicals that are generated by AAPH according to the known method with minor variations. The reaction was carried out at 37 °C in black 96-well plates (SPL life sciences), and the final volume of the reaction mixture was 200 µL per well. The fluorescence was recorded by Tecan M1000 PRO microplate reader (Switzerland) at 485 nm excitation and 520 nm emission.
The 0.7 mM fluorescein sodium salt stock solution in PBS pH 7.4 (137 mM sodium chloride, 2.7 mM potassium chloride, and 10 mM phosphate buffer) was prepared and stored at 4–5 °C no longer than one month. An aliquot of the fluorescein stock solution was further diluted with PBS immediately before each assay to yield a 70 nM working solution. The 133 mM AAPH solution in PBS was prepared immediately before use. The test compounds and Trolox standard were dissolved in DMSO to 400 μM. The final concentration was 10 μM for all of the samples.
The blank was composed of 15 μL PBS pH 7.4, 5 μL DMSO (final concentration: 2.5% (v/v)), 120 μL FL, and 60 μL AAPH, and it was included in each assay. PBS pH 7.4 (15 μL), antioxidant (the test compound or Trolox, 5 μL), and FL (120 μL, final concentration: 42 nM) solutions were placed in a black 96-well microplate and were pre-incubated for 15 min at 37 °C. AAPH solution (60 μL, final concentration 40 mM) was then added rapidly using a multichannel pipette. The fluorescence was recorded every minute for 2 h. A Trolox standard curve was also obtained in each assay. All reactions were carried out in quadruplicate, and two to four independent assays were performed for each sample.
Antioxidant curves (fluorescence vs. time) were first normalized to the curve of the blank (without antioxidant) corresponding to the same assay, and the net AUC corresponding to a sample was calculated by subtracting the AUC corresponding to the blank. The ORAC value was obtained by dividing the latter curve by the Trolox curve obtained in the same assay at 10 μM concentrations of compounds and Trolox. Final ORAC values, Trolox equivalents (TE), were expressed as μmol test compounds per μmol Trolox, where the value of TE for Trolox was taken as 1. Data were expressed as means ± SEM.

[7] = ORAC-FL (oxygen radical absorbance capacity) assay; conditions: mean ± SEM, n = 3; 2 h; read-out: ORAC-FL IC50 (compound concentration required for 50% reduction of peroxyl radical) (converted)

| SMILES | ABTS TEAC (Trolox equivalent antioxidant capacity) [1] | FRAP TE (Trolox equivalent) [2] | inhibition at 20 µM [3] | inhibition at 20 µM [4] | CES % inhibition at 20 μM [5] | ORAC-FL TE (Trolox equivalent) [6] | IC50 [1] | IC50 [7] |
| --- | --- | --- | --- | --- | --- | --- | --- | --- |
| O=C1/C(=N\O)C(C(F)(F)F)=NN1c1ccccc1 [1a] | 0.035 ± 0.002 (n.d.) TEAC |  |  |  |  |  |  |  |
| O=C1/C(=N\O)C(C(F)(F)C(F)(F)F)=NN1c1ccccc1 [1b] | 0.03 ± 0.002 (n.d.) TEAC | 0.06 ± 0.01 TE | 11.9 ± 0.9% | 16.1 ± 1.4% | 8.2 ± 1.3% |  |  |  |
| O=C1/C(=N\O)C(C(F)(F)C(F)(F)C(F)(F)C(F)(F)F)=NN1c1ccccc1 [1c] | 0.04 ± 0.004 (n.d.) TEAC | 0.06 ± 0.01 TE | 11.5 ± 1.8% | 5.3 ± 1% | 7.8 ± 1.4% |  |  |  |
| CC1=NN(c2ccccc2)C(=O)/C1=N\O [1d] | 0.16 ± 0.02 (n.d.) TEAC |  | 4.9 ± 1.3% | 6.6 ± 1.3% |  | 1.07 TE and 1.07 ± 0.17 TE |  |  |
| O=C1NN=C(C(F)(F)C(F)F)/C1=N/O [1f] | 0.15 ± 0.007 (n.d.) TEAC |  | 6.8 ± 1.2% | 4.7 ± 1% | 3.5 ± 0.9% |  |  |  |
| O=C1NN=C(C(F)(F)C(F)(F)C(F)(F)F)/C1=N/O [1h] | 0.19 ± 0.008 (n.d.) TEAC |  | 5.3 ± 1.3% |  | 6.6 ± 1.4% | 2.37 ± 0.09 TE |  |  |
| O=C1NN=C(C(F)(F)C(F)(F)C(F)(F)C(F)(F)F)/C1=N/O [1i] | 0.2 ± 0.01 (n.d.) TEAC |  |  |  |  | 2.41 ± 0.08 TE |  |  |
| Cl.Nc1c(C(F)(F)C(F)F)n[nH]c1O.O [4f, 4-Amino-3-(1,1,2,2-tetrafluoroethyl)-1H-pyrazol-5-ol hydrate hydrochloride] | 0.50 ± 0.02 TEAC | 0.62 ± 0.01 TE | 17.3 ± 1.5% |  | 17.5 ± 1.4% |  | 33.2 µM |  |
| O=c1c(O)c(-c2ccc(O)c(O)c2)oc2cc(O)cc(O)c12 [Quercetin, reference compound] | 1.20 ± 0.11 TEAC | 4.99 ± 0.02 TE |  |  |  | 5.41 ± 0.08 TE | 13.8 µM |  |
| Cc1c(C)c2c(c(C)c1O)CCC(C)(C(=O)O)O2 (stereo not drawn) [Trolox, 6-hydroxy-2,5,7,8-tetramethylchroman-2-carboxylic acid, reference compound] | 1.0 TEAC | 1.0 TE |  |  |  | 1.0 TE | 20.1 µM | 23.6 µM |
